Experimental data published in PubChem BioAssay AID504342 (Broad Institute, 2011).
Activity calls are given as the source filed them.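 How the source made its calls: active means fitted curve reaches 10% of the positive control caspase activation at or below the top valid tested dose; inactive means signal shifts the opposite way, plus the rest.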

Assays:
[1] = inducers of caspase signal, alternate A1 construct – cell-based, MEF, plate reader, dry powder, set 2, orthogonal assay for A1 inhibitor project, dose response (AID 504342); settings: MEF Flag-A1-IRES-BIM, caspase-Glo luminescence, 3 h; at 35 µM (top of the series)
[2] = tested on: MEF Flag-A1-IRES-BIM, caspase-Glo luminescence, 3 h; assay: as above

In the case of O=c1oc2ccccc2c(Nc2cc(Cl)cc(Cl)c2)c1[N+](=O)[O-], the caspase activation [1] was -0.897% (inactive).
In the case of CCOC(=O)N1CCN(c2c([N+](=O)[O-])c(=O)n(C)c3ccccc23)CC1, the caspase activation [1] was -0.543% (inactive).
For Cn1c(=O)c([N+](=O)[O-])c(Nc2ccc(Cl)cc2)c2ccccc21, the caspase activation [1] was -0.882% (inactive).
In the case of CCSc1c([N+](=O)[O-])c(=O)oc2ccccc12, the caspase activation [1] was -1.44% (inactive).
In the case of O=C(Oc1cccc(/C=N/Nc2nc(Nc3ccccc3)nc(N3CCOCC3)n2)c1)c1ccco1, the caspase activation [1] was 2.95% (inactive).
For CCOCCCNc1c([N+](=O)[O-])c(=O)n(C)c2ccccc12, the caspase activation [1] was 1.28% (inactive).
With Cc1ccc(Sc2cc(=O)n(C)c3ccccc23)cc1 the caspase activation [1] was -6.4% (inactive).
Work on Cn1c(=O)c([N+](=O)[O-])c(Cl)c2ccccc21 yielded an AC10 [2] of 1.11 µM.
In the case of Cn1c(=O)c([N+](=O)[O-])c(-n2cnc3ccccc32)c2ccccc21, the AC10 [2] was 15.1 µM.
In the case of Cn1c(=O)c([N+](=O)[O-])c(Oc2ccccc2)c2ccccc21, the AC10 [2] was > 35 µM (inactive).
With O=c1oc2ccccc2c(Cl)c1[N+](=O)[O-] the caspase activation [1] was -5.93% (inactive).
With Cc1ccc(Nc2c([N+](=O)[O-])c(=O)n(C)c3ccccc23)cc1 the caspase activation [1] was -0.435% (inactive).
With Cc1ccc(Sc2c([N+](=O)[O-])cnc3ccccc23)cc1 the AC10 [2] was > 16 µM (inactive).
With O=c1oc2ccccc2c(N2CCCCC2)c1[N+](=O)[O-] the caspase activation [1] was -2.6% (inactive).
In the case of Cc1ccc(Nc2c([N+](=O)[O-])c(=O)oc3ccccc23)cc1, the caspase activation [1] was 0.875% (inactive).
Cc1ccc(Sc2c([N+](=O)[O-])c(=O)n(C)c3ccccc23)cc1 gave an AC10 [2] of 5.09 µM.
For Cc1ccc(Sc2c([N+](=O)[O-])c(=O)oc3ccccc23)cc1, the caspase activation [1] was -2.87% (inactive).
With O=[N+]([O-])c1cnc2ccccc2c1Sc1ccccc1 the caspase activation [1] was -1.68% (inactive).
With CN1C(=O)C(C)(C)N(Cc2ccccc2)c2ccccc21 the caspase activation [1] was 1.13% (inactive).
In the case of O=c1oc2ccccc2c(Sc2ccccc2)c1[N+](=O)[O-], the caspase activation [1] was -6.2% (inactive).
In the case of C/C1=C/C(=O)O[C@@H]2C[C@@H](CC[C@H](C)/C=C\CC1)O[C@@](O)(C1CSC(=O)N1)C2 (stereo partly specified), the caspase activation [1] was 2.78% (inactive).
